Assay results: ChEMBL document CHEMBL1139710, “Syntheses and studies of quinolone-cephalosporins as potential anti-tuberculosis agents” (Bioorg Med Chem Lett, 2006)
In brackets after ≈: the same amount, converted by molar mass.

Key:
[1] = test system: Escherichia coli; experiment: Antibacterial activity against Escherichia coli DC2 permeability mutant; format: functional
[2] = test system: Mycolicibacterium vaccae; experiment: Antibacterial activity against Mycobacterium vaccae IMET10670; format: functional
[3] = test system: Mycobacterium tuberculosis; experiment: Antibacterial activity against Mycobacterium tuberculosis H37Rv by microplate alamar blue assay; format: functional
[4] = test system: Enterobacter cloacae; experiment: Antibacterial activity against Enterobacter cloacae P99; format: functional
[5] = test system: Pseudomonas aeruginosa; experiment: Antibacterial activity against Pseudomonas aeruginosa KW 799/ 61 permeability mutant; format: functional
[6] = test system: Escherichia coli; experiment: Antibacterial activity against Escherichia coli DC0; format: functional, organism-based
[7] = test system: Mycolicibacterium aurum; experiment: Antibacterial activity against Mycobacterium aurum SB66; format: functional
[8] = test system: Mycolicibacterium aurum; experiment: Antibacterial activity against Mycobacterium aurum DSM 43436; format: functional
[9] = test system: Mycolicibacterium smegmatis; experiment: Antibacterial activity against Mycobacterium smegmatis SG987; format: functional
[10] = test system: Staphylococcus aureus; experiment: Antibacterial activity against Staphylococcus aureus 134/93 MRSA; format: functional
[11] = test system: Micrococcus luteus; experiment: Antibacterial activity against Micrococcus luteus ATCC 10240; format: functional
[12] = test system: Pseudomonas aeruginosa; experiment: Antibacterial activity against Pseudomonas aeruginosa KW 799; format: functional
[13] = test system: Mycolicibacterium fortuitum; experiment: Antibacterial activity against Mycobacterium fortuitum B; format: functional
[14] = test system: Enterococcus faecalis; experiment: Antibacterial activity against Enterococcus faecalis 1528 VRE; format: functional
[15] = test system: Staphylococcus aureus; experiment: Antibacterial activity against Staphylococcus aureus SG 511; format: functional
[16] = test system: Vero; experiment: Cytotoxicity against Vero cells; format: cell-based; details: Chlorocebus sabaeus

Row | Structure (SMILES) | MIC [1] | MIC [2] | MIC [3] | MIC [4] | MIC [5] | MIC [6] | MIC [7] | MIC [8] | MIC [9] | MIC [10] | MIC [11] | MIC [12] | MIC [13] | MIC [14] | MIC [15] | IC50 [16] | IC50 [6]
1 | O=C(Cc1ccccc1)N[C@@H]1C(=O)N2C(C(=O)OC(c3ccccc3)c3ccccc3)=C(CO)CS[C@H]12 | 200 µM (≈ 103 µg/mL) | 200 µM (≈ 103 µg/mL) | > 128 µM | 200 µM (≈ 103 µg/mL) | 100 µM (≈ 51.5 µg/mL) | > 200 µM | 50 µM (≈ 25.7 µg/mL) | 25 µM (≈ 12.9 µg/mL) | 200 µM (≈ 103 µg/mL) | > 200 µM | 25 µM (≈ 12.9 µg/mL) | 100 µM (≈ 51.5 µg/mL) | 200 µM (≈ 103 µg/mL) | 200 µM (≈ 103 µg/mL) | 3.12 µM (≈ 1.61 µg/mL) |  | 
2 | COc1ccc(COC(=O)C2=C(CN3CCN(c4cc5c(cc4F)c(=O)c(C(=O)O)cn5C4CC4)CC3)CS[C@@H]3[C@H](NC(=O)Cc4ccccc4)C(=O)N23)cc1 | 6.25 µM (≈ 4.89 µg/mL) | 3.12 µM (≈ 2.44 µg/mL) | 62.3 µM (≈ 48.7 µg/mL) | 0.4 µM (≈ 0.313 µg/mL) | 12.5 µM (≈ 9.77 µg/mL) | 25 µM (≈ 19.5 µg/mL) | 0.8 µM (≈ 0.625 µg/mL) | 1.56 µM (≈ 1.22 µg/mL) | 12.5 µM (≈ 9.77 µg/mL) | > 200 µM | 3.12 µM (≈ 2.44 µg/mL) | 12.5 µM (≈ 9.77 µg/mL) | 12.5 µM (≈ 9.77 µg/mL) | 50 µM (≈ 39.1 µg/mL) | 1.56 µM (≈ 1.22 µg/mL) | 13.1 µM | 
3 | O=C(Cc1ccccc1)N[C@@H]1C(=O)N2C(C(=O)O)=C(COC(=O)N3CCN(c4cc5c(cc4F)c(=O)c(C(=O)O)cn5C4CC4)CC3)CS[C@H]12 | 0.8 µM (≈ 0.565 µg/mL) | 1.56 µM (≈ 1.1 µg/mL) | 1.6 µM (≈ 1.13 µg/mL) | 0.2 µM (≈ 0.141 µg/mL) | 3.12 µM (≈ 2.2 µg/mL) | 3.12 µM (≈ 2.2 µg/mL) | 0.2 µM (≈ 0.141 µg/mL) | 0.2 µM (≈ 0.141 µg/mL) | 3.12 µM (≈ 2.2 µg/mL) | 200 µM (≈ 141 µg/mL) | 0.2 µM (≈ 0.141 µg/mL) | 3.12 µM (≈ 2.2 µg/mL) | 0.8 µM (≈ 0.565 µg/mL) | 6.25 µM (≈ 4.41 µg/mL) | 0.4 µM (≈ 0.282 µg/mL) | > 128 µM | 
4 | O=C(Cc1ccccc1)N[C@@H]1C(=O)N2C(C(=O)OC(c3ccccc3)c3ccccc3)=C(COC(=O)N3CCN(c4cc5c(cc4F)c(=O)c(C(=O)O)cn5C4CC4)CC3)CS[C@H]12 | 0.2 µM (≈ 0.174 µg/mL) | 1.56 µM (≈ 1.36 µg/mL) | 8 µM (≈ 6.98 µg/mL) | < 0.1 µM | 1.56 µM (≈ 1.36 µg/mL) |  | 0.2 µM (≈ 0.174 µg/mL) | 0.2 µM (≈ 0.174 µg/mL) | 1.56 µM (≈ 1.36 µg/mL) | 100 µM (≈ 87.2 µg/mL) | 12.5 µM (≈ 10.9 µg/mL) | 1.56 µM (≈ 1.36 µg/mL) | 0.8 µM (≈ 0.698 µg/mL) | 3.12 µM (≈ 2.72 µg/mL) | 0.2 µM (≈ 0.174 µg/mL) | > 128 µM | 1560 nM
5 | O=C(Cc1ccccc1)N[C@@H]1C(=O)N2C(C(=O)O)=C(CN3CCN(c4cc5c(cc4F)c(=O)c(C(=O)O)cn5C4CC4)CC3)CS[C@H]12 | 0.8 µM (≈ 0.529 µg/mL) | 3.12 µM (≈ 2.06 µg/mL) | 3.8 µM (≈ 2.51 µg/mL) | 0.1 µM (≈ 0.0662 µg/mL) | 1.56 µM (≈ 1.03 µg/mL) | 3.12 µM (≈ 2.06 µg/mL) | 0.4 µM (≈ 0.265 µg/mL) | 0.4 µM (≈ 0.265 µg/mL) | 3.12 µM (≈ 2.06 µg/mL) | 200 µM (≈ 132 µg/mL) | 0.4 µM (≈ 0.265 µg/mL) | 1.56 µM (≈ 1.03 µg/mL) | 3.12 µM (≈ 2.06 µg/mL) | 12.5 µM (≈ 8.27 µg/mL) | 1.56 µM (≈ 1.03 µg/mL) | > 128 µM | 
6 | COc1ccc(COC(=O)C2=C(CI)CS[C@@H]3[C@H](NC(=O)Cc4ccccc4)C(=O)N23)cc1 | 200 µM (≈ 116 µg/mL) | 100 µM (≈ 57.8 µg/mL) | > 128 µM | 100 µM (≈ 57.8 µg/mL) | 100 µM (≈ 57.8 µg/mL) | 200 µM (≈ 116 µg/mL) | 100 µM (≈ 57.8 µg/mL) | 50 µM (≈ 28.9 µg/mL) | > 200 µM | > 200 µM | 100 µM (≈ 57.8 µg/mL) | 100 µM (≈ 57.8 µg/mL) | 200 µM (≈ 116 µg/mL) | 200 µM (≈ 116 µg/mL) | 6.25 µM (≈ 3.62 µg/mL) |  | 
7 | COc1ccc(COC(=O)C2=C(CCl)CS[C@@H]3[C@H](NC(=O)Cc4ccccc4)C(=O)N23)cc1 |  | 100 µM (≈ 48.7 µg/mL) | 31.5 µM (≈ 15.3 µg/mL) |  | 50 µM (≈ 24.3 µg/mL) | 200 µM (≈ 97.4 µg/mL) |  |  |  |  | 50 µM (≈ 24.3 µg/mL) | 100 µM (≈ 48.7 µg/mL) | 100 µM (≈ 48.7 µg/mL) |  | 1.56 µM (≈ 0.76 µg/mL) |  | 
8 | O=C(O)c1cn(C2CC2)c2cc(N3CCNCC3)c(F)cc2c1=O [CIPROFLOXACIN] | < 0.1 µM | 0.8 µM (≈ 0.265 µg/mL) | 1.8 µM (≈ 0.596 µg/mL) |  | 0.4 µM (≈ 0.133 µg/mL) | 0.4 µM (≈ 0.133 µg/mL) | 0.1 µM (≈ 0.0331 µg/mL) | 0.1 µM (≈ 0.0331 µg/mL) | 0.8 µM (≈ 0.265 µg/mL) | 50 µM (≈ 16.6 µg/mL) | 25 µM (≈ 8.28 µg/mL) | 0.8 µM (≈ 0.265 µg/mL) | 0.2 µM (≈ 0.0663 µg/mL) | 1.56 µM (≈ 0.517 µg/mL) | 0.8 µM (≈ 0.265 µg/mL) |  | 
